The values below come from patent US20130102595A1 (Curis, Inc., priority 2011, published 2013).

For assay [1], the system named is HDACs (HeLa cell nuclear extracts). Put plainly: HDAC enzymatic activity, Biomol Color de Lys system. The assay is classed as biochemical. The conditions noted are these: 1 hour, 25° C. On the procedure: (E) an In Vitro Assay which Determines the Ability of a Test Compound to Inhibit HDAC Enzymatic Activity.
HDAC inhibitory activity was assessed using the Biomol Color de Lys system (AK-500, Biomol, Plymouth Meeting, Pa.). Briefly, HeLa cell nuclear extracts were used as a source of HDACs. Different concentrations of test compounds were serially diluted in dimethylsulphoxide (DMSO) and added to HeLa cell nuclear extracts in the presence of a colorimetric artificial substrate. Final assay condition contained 50 mM Tris/Cl, pH 8.0, 137 mM NaCl, 2.7 mM KCl and 1 mM MgCl2. Reactions were carried in room temperature (25° C.) for 1 hour before addition of developer for termination. Relative enzyme activity was measured in the WALLAC Victor II 1420 microplate reader as fluorescence intensity (excitation: 350-380 nm; emission: 440-460 nm). Data were analyzed using GraphPad Prism (v4.0a) with a sigmoidal dose response curve fitting for IC50 calculation.

For the next assay, the target named is T1, PI3Kα (p110α/p85α) (Homo sapiens, UniProt P42336).
T1 construct: GST (N); made in house; host or cells: Baculovirus-infected Sf9 cells
T1 sequence (P42336 whole entry): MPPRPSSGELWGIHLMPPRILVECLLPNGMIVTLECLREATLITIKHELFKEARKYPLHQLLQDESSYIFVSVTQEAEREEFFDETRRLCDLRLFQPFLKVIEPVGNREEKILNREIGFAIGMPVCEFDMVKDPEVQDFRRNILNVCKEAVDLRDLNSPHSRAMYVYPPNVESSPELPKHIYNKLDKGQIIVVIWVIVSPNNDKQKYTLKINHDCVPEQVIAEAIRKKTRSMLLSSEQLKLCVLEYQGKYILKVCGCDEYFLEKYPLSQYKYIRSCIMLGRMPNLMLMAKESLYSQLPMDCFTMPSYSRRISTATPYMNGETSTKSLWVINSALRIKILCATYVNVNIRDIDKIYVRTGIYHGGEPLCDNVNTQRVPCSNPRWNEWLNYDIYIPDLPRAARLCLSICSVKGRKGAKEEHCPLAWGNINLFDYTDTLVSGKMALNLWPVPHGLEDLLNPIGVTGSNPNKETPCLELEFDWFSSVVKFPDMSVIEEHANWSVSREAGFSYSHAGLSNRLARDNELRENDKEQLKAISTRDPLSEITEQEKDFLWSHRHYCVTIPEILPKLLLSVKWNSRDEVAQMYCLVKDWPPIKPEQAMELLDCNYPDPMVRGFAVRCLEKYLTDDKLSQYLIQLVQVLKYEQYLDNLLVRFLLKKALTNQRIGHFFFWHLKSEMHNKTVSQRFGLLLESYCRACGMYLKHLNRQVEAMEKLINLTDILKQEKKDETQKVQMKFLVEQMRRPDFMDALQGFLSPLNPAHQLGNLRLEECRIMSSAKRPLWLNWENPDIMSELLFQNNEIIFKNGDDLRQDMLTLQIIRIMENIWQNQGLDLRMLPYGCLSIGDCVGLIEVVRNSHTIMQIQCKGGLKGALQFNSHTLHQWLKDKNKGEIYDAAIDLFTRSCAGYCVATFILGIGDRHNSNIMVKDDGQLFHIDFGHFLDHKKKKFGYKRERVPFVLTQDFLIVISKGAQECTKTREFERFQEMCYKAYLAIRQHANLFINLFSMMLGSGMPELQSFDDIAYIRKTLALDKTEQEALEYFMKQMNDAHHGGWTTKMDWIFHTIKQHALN
T1 sequence (P27986 whole entry partner): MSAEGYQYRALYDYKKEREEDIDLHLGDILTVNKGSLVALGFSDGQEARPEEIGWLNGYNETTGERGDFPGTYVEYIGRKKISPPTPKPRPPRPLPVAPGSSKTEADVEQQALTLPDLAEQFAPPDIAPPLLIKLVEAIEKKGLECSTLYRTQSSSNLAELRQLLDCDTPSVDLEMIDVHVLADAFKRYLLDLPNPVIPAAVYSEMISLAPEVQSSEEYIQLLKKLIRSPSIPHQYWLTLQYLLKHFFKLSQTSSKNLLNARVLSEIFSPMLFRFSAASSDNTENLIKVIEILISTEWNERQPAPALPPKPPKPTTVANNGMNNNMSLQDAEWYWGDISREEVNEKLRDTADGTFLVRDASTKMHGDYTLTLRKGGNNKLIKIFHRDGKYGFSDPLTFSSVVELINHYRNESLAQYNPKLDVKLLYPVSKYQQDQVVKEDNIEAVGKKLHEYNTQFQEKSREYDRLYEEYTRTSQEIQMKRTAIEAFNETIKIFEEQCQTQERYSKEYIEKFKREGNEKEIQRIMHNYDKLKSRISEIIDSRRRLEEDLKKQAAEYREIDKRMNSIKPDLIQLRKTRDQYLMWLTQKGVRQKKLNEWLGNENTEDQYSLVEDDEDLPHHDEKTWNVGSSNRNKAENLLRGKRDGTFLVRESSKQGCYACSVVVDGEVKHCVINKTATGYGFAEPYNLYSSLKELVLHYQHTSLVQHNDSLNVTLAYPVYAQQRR
Put plainly: PI3Kα ADP-Glo assay. The assay is classed as biochemical. To be noted: 20 μM PIP2, 10 μM ATP, 30 minutes. On the procedure:
(A) an In Vitro Assay which Determines the Ability of a Test Compound to Inhibit PI3Kα.
Activity of PI3Kα was measured using ADP-Glo assay from Promega. PI3Kα, a complex of N-terminal GST-tagged recombinant full-length human p110α (GenBank, Accession No. U79143) and N-terminal His tagged recombinant full length human p85a (GenBank Accession No. XM—043865) were co-expressed in a Baculovirus infected Sf9 cell expression system. The ADP-Glo assay was performed to measure the amount of ADP generated from ATP hydrolysis coupled with PIP2 phosphorylation by the purified recombinant PI3Kα (p110α/p85α). PI3Kα was incubated with 20 μM PIP2 substrate in the reaction buffer (50 mM HEPES, pH 7.4, 150 mM NaCl, 5 mM MgCl2, 1 mM DTT, 3 uM Naorthovanadate, 10 μM ATP and 0.5% DMSO) for 30 minutes at room temperature. The ADP generated was then detected by ADP-Glo assay from Promega, a luminescent ADP detection assay. The ADP-Glo assay is performed in two steps; first, after the kinase reaction, ADP-Glo Reagent is added to terminate the kinase reaction and deplete the remaining ATP. Second, the Kinase Detection Reagent is added to simultaneously convert ADP to ATP and allow the newly synthesized ATP to be measured using a luciferase/luciferin reaction.

pIC50: −log10 of the molar value.

As to `COCCNc1nc(-c2cccc3[nH]ncc23)nc2cc(CN(C)c3ncc(C(=O)NO)cn3)sc12` [Compound 160], the pIC50 (commonly −log10 of the IC50, conventionally taken in molar units) in assay [1] was more than 7.00; against PI3Kα (p110α/p85α), less than 5.00.

In the case of `Nc1ccc(-c2nc(N3CCOCC3)c3sc(CN(CCO)c4ncc(C(=O)NO)cn4)cc3n2)cn1` [Compound 235], the pIC50 (in assay [1]; at PI3Kα (p110α/p85α)) was more than 7.00 in each case.

With `CNc1ccc(-c2nc(N3CCOCC3)c3sc(NS(=O)(=O)c4ccc(/C=C/C(=O)NO)cc4)cc3n2)cn1` [Compound 223], the pIC50 (in assay [1]; on PI3Kα (p110α/p85α)) was more than 7.00 in each case.

Consider `CNc1ccc(-c2nc(N3CCOCC3)c3sc(CNCc4nc5cc(/C=C/C(=O)NO)ccc5n4C)cc3n2)cn1` [Compound 328], for which the pIC50 in assay [1] is 6.00 to 7.00; on PI3Kα (p110α/p85α) it was more than 7.00.

Take `CN(Cc1cc2nc(-c3cccc(S(=O)(=O)CCO)c3)nc(N3CCOCC3)c2s1)c1ncc(C(=O)NO)cn1` [Compound 291]: the pIC50 is more than 7.00 in assay [1] and less than 5.00 on PI3Kα (p110α/p85α).

As for `CS(=O)(=O)N1CCN(Cc2cc3nc(-c4cccc5c4cnn5CCCCCCC(=O)NO)nc(N4CCOCC4)c3s2)CC1` [Compound 5, N-hydroxy-7-(4-(6-((4-(methylsulfonyl)piperazin-1-yl)methyl)-4-morpholinothieno[3,2-d]pyrimidin-2-yl)-1H-indazol-1-yl)heptanamide], the figures for the pIC50 (in assay [1]; at PI3Kα (p110α/p85α)) were more than 7.00 and less than 5.00, respectively.

Take `COc1ccc(Nc2nc(-c3cccc4[nH]ncc34)nc3cc(CN(C)c4ncc(C(=O)NO)cn4)sc23)cc1` [Compound 165]: the values for the pIC50 (in assay [1]; against PI3Kα (p110α/p85α)) were more than 7.00 and less than 5.00, respectively.

On to `CN(Cc1cc2nc(-c3cnc(C(N)=O)nc3)nc(N3CCOCC3)c2s1)c1ncc(C(=O)NO)cn1` [Compound 122], for which the pIC50 (in assay [1]; on PI3Kα (p110α/p85α)) was more than 7.00 in each case.

Consider `CNc1ccc(-c2nc(N3CCOCC3)c3sc(CN(C)Cc4nc5cc(/C=C/C(=O)NO)ccc5n4C)cc3n2)cn1` [Compound 329], for which the pIC50 is 6.00 to 7.00 in assay [1] and more than 7.00 on PI3Kα (p110α/p85α).

As for `O=C(NO)c1ccc(CNCc2cc3nc(-c4cccc5[nH]ncc45)nc(N4CCOCC4)c3s2)cc1` [Compound 203], the pIC50 (in assay [1]; on PI3Kα (p110α/p85α)) was 6.00 to 7.00 throughout.

Consider `O=C(NO)c1cnc(N2CCN(S(=O)(=O)c3cc4nc(-c5cccc6[nH]ncc56)nc(N5CCOCC5)c4s3)CC2)nc1` [Compound 51], for which the pIC50 in assay [1] is 6.00 to 7.00; against PI3Kα (p110α/p85α) it was more than 7.00.

As to `Nc1ccc(-c2nc(N3CCOCC3)c3sc(S(=O)(=O)NCC4CCN(c5ncc(C(=O)NO)cn5)CC4)cc3n2)cc1` [Compound 309], the pIC50 (in assay [1]; against PI3Kα (p110α/p85α)) was 6.00 to 7.00 throughout.

On to `Cn1c(CNCc2cc3nc(-c4ccc(N)cc4)nc(N4CCOCC4)c3s2)nc2cc(/C=C/C(=O)NO)ccc21` [Compound 326], for which the pIC50 (in assay [1]; against PI3Kα (p110α/p85α)) was 6.00 to 7.00 throughout.

As for `CN(C)CCN(Cc1cc2nc(-c3cccc4[nH]ncc34)nc(N3CCOCC3)c2s1)c1ncc(C(=O)NO)cn1` [Compound 95], the pIC50 in assay [1] was 6.00 to 7.00; on PI3Kα (p110α/p85α), more than 7.00.

On to `O=C(CCCCCNc1cc2nc(-c3cccc4[nH]ncc34)nc(N3CCOCC3)c2s1)NO` [Compound 19], for which the negative-log IC50 (pIC50) in assay [1] is more than 7.00; at PI3Kα (p110α/p85α), 6.00 to 7.00.

As to `CCCc1nc2cc(/C=C/C(=O)NO)ccc2n1CCN(C)Cc1cc2nc(-c3ccc(NC)nc3)nc(N3CCOCC3)c2s1` [Compound 322], the pIC50 (in assay [1]; against PI3Kα (p110α/p85α)) was 6.00 to 7.00 each time.

For the compound `Cc1c(CN(C)c2ncc(C(=O)NO)cn2)sc2c(N3CCOCC3)nc(-c3cccc4[nH]ncc34)nc12` [Compound 68], the figures for the pIC50 (in assay [1]; at PI3Kα (p110α/p85α)) were more than 7.00 and 6.00 to 7.00, respectively.

Consider `CN(Cc1cc2nc(-c3cccc4[nH]ncc34)nc(N(CCO)CCO)c2s1)c1ncc(C(=O)NO)cn1` [Compound 162], for which the pIC50 in assay [1] was more than 7.00; against PI3Kα (p110α/p85α), 5.00 to 6.00.

In the case of `COCCN(Cc1cc2nc(-c3cccc4[nH]ncc34)nc(N3CCOCC3)c2s1)c1ncc(C(=O)NO)cn1` [Compound 90, 2-(((2-(1H-indazol-4-yl)-4-morpholinothieno[3,2-d]pyrimidin-6-yl)methyl)(2-methoxyethyl)amino)-N-hydroxypyrimidine-5-carboxamide], the pIC50 (in assay [1]; against PI3Kα (p110α/p85α)) was more than 7.00 throughout.

In the case of `Nc1ccc(-c2nc(N3CCOCC3)c3sc(CN4CCN(c5ncc(C(=O)NO)cn5)CC4)cc3n2)cc1` [Compound 207], the pIC50 was more than 7.00 in assay [1] and 6.00 to 7.00 at PI3Kα (p110α/p85α).

As for `CN1CCN(c2nc(-c3cccc4[nH]ncc34)nc3cc(CN(C)c4ncc(C(=O)NO)cn4)sc23)CC1` [Compound 61], the results for the pIC50 (in assay [1]; at PI3Kα (p110α/p85α)) were more than 7.00 and less than 5.00, respectively.

As for `COc1ccc(-c2nc(N3CCOCC3)c3sc(Nc4ncc(C(=O)NO)cn4)cc3n2)cn1` [Compound 253], the pIC50 in assay [1] is 6.00 to 7.00; against PI3Kα (p110α/p85α), more than 7.00.

In the case of `CN(Cc1cc2nc(-c3cccc4[nH]ncc34)nc(N3CCN(CCO)CC3)c2s1)c1ncc(C(=O)NO)cn1` [Compound 63], the pIC50 in assay [1] is more than 7.00; against PI3Kα (p110α/p85α) it was less than 5.00.

Turning to `CCN(Cc1cc2nc(-c3cccc4[nH]ncc34)nc(N3CCOCC3)c2s1)c1ncc(C(=O)NO)cn1` [Compound 92], the pIC50 (in assay [1]; against PI3Kα (p110α/p85α)) was more than 7.00 throughout.

For `CN(Cc1cc2nc(-c3cccc4[nH]ncc34)nc(NCCO)c2s1)c1ncc(C(=O)NO)cn1` [Compound 161], the pIC50 is more than 7.00 in assay [1] and 6.00 to 7.00 against PI3Kα (p110α/p85α).

As to `COc1ncc(-c2nc(N3CCOCC3)c3sc(NS(=O)(=O)c4cccc(/C=C/C(=O)NO)c4)cc3n2)cn1` [Compound 220], the pIC50 (in assay [1]; on PI3Kα (p110α/p85α)) was more than 7.00 in each case.

For `O=C(/C=C/c1ccc(S(=O)(=O)Nc2cc3nc(-c4cccc5[nH]ncc45)nc(N4CCOCC4)c3s2)cc1)NO` [Compound 50], the pIC50 (in assay [1]; at PI3Kα (p110α/p85α)) was more than 7.00 throughout.

As to `COc1ncc(-c2nc(N3CCOCC3)c3sc(C(C)(C)N(C)c4ncc(C(=O)NO)cn4)cc3n2)cn1` [Compound 264], the pIC50 in assay [1] was more than 7.00; on PI3Kα (p110α/p85α), 6.00 to 7.00.

On to `CC(=O)c1cccc(-c2nc(N3CCOCC3)c3sc(CN(C)c4ncc(C(=O)NO)cn4)cc3n2)c1` [Compound 300], for which the pIC50 was more than 7.00 in assay [1] and 6.00 to 7.00 against PI3Kα (p110α/p85α).

For `CN(Cc1cc2nc(-c3ccc(N)cc3)nc(N3CCOCC3)c2s1)c1ccc(C(=O)NO)cc1` [Compound 206], the negative logarithm of the IC50 (pIC50) in assay [1] was more than 7.00; on PI3Kα (p110α/p85α), 6.00 to 7.00.

On to `CC(=O)NCCN(Cc1cc2nc(-c3cccc4[nH]ncc34)nc(N3CCOCC3)c2s1)c1ncc(C(=O)NO)cn1` [Compound 96], for which the pIC50 (in assay [1]; on PI3Kα (p110α/p85α)) was more than 7.00 throughout.

As for `CNc1ccc(-c2nc(N3CCOCC3)c3sc(N(C)c4ncc(C(=O)NO)cn4)cc3n2)cn1` [Compound 243], the pIC50 is 6.00 to 7.00 in assay [1] and more than 7.00 on PI3Kα (p110α/p85α).

Regarding `CN(Cc1cc2nc(-c3cccc4[nH]c(=S)[nH]c34)nc(N3CCOCC3)c2s1)c1ncc(C(=O)NO)cn1` [Compound 315], the pIC50 (in assay [1]; against PI3Kα (p110α/p85α)) was more than 7.00 in each case.

`COCCN(CCOC)c1nc(-c2cccc3[nH]ncc23)nc2cc(CN(C)c3ncc(C(=O)NO)cn3)sc12` [Compound 163]: the results for the pIC50 (in assay [1]; at PI3Kα (p110α/p85α)) were more than 7.00 and 6.00 to 7.00, respectively.

Take `CC(C)(Nc1ncc(C(=O)NO)cn1)c1cc2nc(-c3cccc4[nH]ncc34)nc(N3CCOCC3)c2s1` [Compound 71]: the pIC50 in assay [1] is more than 7.00; against PI3Kα (p110α/p85α), 6.00 to 7.00.

For `CN(Cc1cc2nc(-c3cccc4[nH]ncc34)nc(N3CCCCC3)c2s1)c1ncc(C(=O)NO)cn1` [Compound 67], the pIC50 in assay [1] was more than 7.00; against PI3Kα (p110α/p85α), 6.00 to 7.00.

On to `CCCc1nc2cc(/C=C/C(=O)NO)ccc2n1CCNCc1cc2nc(-c3ccc(N)cc3)nc(N3CCOCC3)c2s1` [Compound 325], for which the figures for the pIC50 (in assay [1]; on PI3Kα (p110α/p85α)) were 6.00 to 7.00 and 5.00 to 6.00, respectively.

As for `CN(Cc1cc2nc(-c3ccc(N)cc3)nc(N3CCOCC3)c2s1)Cc1nc2cc(/C=C/C(=O)NO)ccc2n1C` [Compound 327], the pIC50 was 6.00 to 7.00 in assay [1] and 5.00 to 6.00 against PI3Kα (p110α/p85α).

Take `O=C(/C=C/c1ccc(CNCc2cc3nc(-c4cccc5[nH]ncc45)nc(N4CCOCC4)c3s2)cc1)NO` [Compound 204]: the pIC50 (in assay [1]; on PI3Kα (p110α/p85α)) was 6.00 to 7.00 throughout.

In the case of `CC1CN(c2nc(-c3cccc4[nH]ncc34)nc3cc(CN(C)c4ncc(C(=O)NO)cn4)sc23)CC(C)O1` (centres unmarked) [Compound 65], the pIC50 in assay [1] was more than 7.00; against PI3Kα (p110α/p85α), 6.00 to 7.00.
